Assay results published in patent US20260166114A1, “DYNAMIC HYDROGEL COMPOSITIONS” (The Board of Trustees of the Leland Stanford Junior …, priority 2022, published 2026).
Entries after “also recorded” stand apart in the source; their conditions may differ.

Experiment: Rheological characterization of hydrogel compositions (shear and extensional rheology)
Assay type: physicochemical
Details: for change of crossover frequency compared to the Sangelose only hydrogel: 3 wt % Sangelose with 0.75 wt % second agent (αCD 0.05 wt %), 25° C.; for G′ values compared to hydrogels comprising only Sangelose (Tween comparison): at a frequency of 10 rad·s^−1, 3 wt % Sangelose, 0.75 wt % Tween; for tan (delta) compared to Sangelose only hydrogels / storage modulus (G′) compared to Sangelose only hydrogels: measured at 0.1 rad·s^−1, 3 wt % Sangelose with second agent
Method: Rheological characterization was performed using a 20-mm diameter serrated parallel plate at a 500-μm gap on a TA Instruments DHR-2 stress-controlled rheometer. All measurements were performed at 25° C. Frequency sweep measurements were performed at a constant 1% strain. Steady shear flow sweeps were performed from high to low shear rates. Stress sweeps were performed from low to high with steady-state sensing and yield stress values defined as the stress at which the viscosity decreases 10% from the maximum. Amplitude sweep measurements were performed at a frequency of 0.1 rad·s^-1. P values are calculated with a one-way ANOVA followed by post hoc Tukey multiple comparison test unless otherwise noted. Extensional rheology was performed on a TA Instruments ARES-G2 rheometer in axial mode using an 8-mm parallel plate geometry (R=4 mm) at a H=4 mm gap, resulting in an aspect ratio of H/R=1. A sample volume of 400 μl was loaded for each of the three replicated measurements. All experiments were performed at 25° C. Samples of the hydrogel compositions were loaded and tested immediately within seconds to minimize dehydration. […] (exponential) strain rates were applied at three different strain rates.

## Span 20
  change of crossover frequency compared to the Sangelose only hydrogel: did not change the crossover frequency

## polyoxyethylene (20) sorbitan monopalmitate [Tween 40]
  G′ values compared to hydrogels comprising only Sangelose (Tween comparison): lower G′ values
  tan (delta) compared to Sangelose only hydrogels: significantly higher tan (delta) values

## OCC1O[C@@H]2O[C@@H]3C(CO)O[C@H](O[C@@H]4C(CO)O[C@H](O[C@@H]5C(CO)O[C@H](O[C@@H]6C(CO)O[C@H](O[C@@H]7C(CO)O[C@H](O[C@H]1[C@H](O)[C@H]2O)[C@H](O)[C@H]7O)[C@H](O)[C@H]6O)[C@H](O)[C@H]5O)[C@H](O)[C@H]4O)[C@H](O)[C@H]3O (stereo partly drawn) [αCD, α-cyclodextrin]
  change of crossover frequency compared to the Sangelose only hydrogel: shift rightward
  storage modulus (G′) compared to Sangelose only hydrogels: lower than the storage modulus of the Sangelose only hydrogels
  tan (delta) compared to Sangelose only hydrogels: higher than the tan (delta) values of the Sangelose only hydrogels

## polyoxyethylene (20) sorbitan monooleate [Tween 80]
  change of crossover frequency compared to the Sangelose only hydrogel: shift rightward
  G′ values compared to hydrogels comprising only Sangelose (Tween comparison): lower G′ values
  storage modulus (G′) compared to Sangelose only hydrogels: lower than the storage modulus of the Sangelose only hydrogels
  tan (delta) compared to Sangelose only hydrogels: higher than the tan (delta) values of the Sangelose only hydrogels; also recorded: significantly higher tan (delta) values

## polyoxyethylene (20) sorbitan monolaurate [Tween 20]
  change of crossover frequency compared to the Sangelose only hydrogel: shift rightward
  G′ values compared to hydrogels comprising only Sangelose (Tween comparison): lower G′ values
  storage modulus (G′) compared to Sangelose only hydrogels: lower than the storage modulus of the Sangelose only hydrogels
  tan (delta) compared to Sangelose only hydrogels: higher than the tan (delta) values of the Sangelose only hydrogels; also recorded: significantly higher tan (delta) values
